What was measured:
[1] = The drug is tested on Bacteroides finegoldii strain: DSM17565 for biotransformation. The drug concentrations were measured before and after a 12-h incubation by liquid-chromatography-coupled mass spectrometry (LC–MS); conditions: 2 µM
[2] = The drug is tested on Bacteroides ovatus strain: ATCC8483 for biotransformation. The drug concentrations were measured before and after a 12-h incubation by liquid-chromatography-coupled mass spectrometry (LC–MS); conditions: 2 µM
[3] = The drug is tested on Bacteroides pectinophilus strain: ATCC43243 for biotransformation. The drug concentrations were measured before and after a 12-h incubation by liquid-chromatography-coupled mass spectrometry (LC–MS); conditions: 2 µM
[4] = enterocloster bolteae, 12 h, 2 µM
Description: The drug is tested on Clostridium bolteae strain: ATCCBAA-613 for biotransformation. The drug concentrations were measured before and after a 12-h incubation by liquid-chromatography-coupled mass spectrometry (LC–MS)

[5] = bacteroides eggerthii, 12 h, 2 µM
[6] = The drug is tested on Odoribacter splanchnicus strain: fecal isolate for biotransformation. The drug concentrations were measured before and after a 12-h incubation by liquid-chromatography-coupled mass spectrometry (LC–MS); conditions: 2 µM
[7] = The drug is tested on Bacteroides dorei strain: DSM17855 for biotransformation. The drug concentrations were measured before and after a 12-h incubation by liquid-chromatography-coupled mass spectrometry (LC–MS); conditions: phocaeicola dorei, 2 µM
[8] = The drug is tested on Bacteroides sp. WH2 strain: WH2 for biotransformation. The drug concentrations were measured before and after a 12-h incubation by liquid-chromatography-coupled mass spectrometry (LC–MS); conditions: bacteroides sp. wh2, 12 h, 2 µM
[9] = The drug is tested on Providencia stuartii strain: ATCC25827 for biotransformation. The drug concentrations were measured before and after a 12-h incubation by liquid-chromatography-coupled mass spectrometry (LC–MS); conditions: 2 µM
[10] = The drug is tested on Blautia luti strain: DSM14534 for biotransformation. The drug concentrations were measured before and after a 12-h incubation by liquid-chromatography-coupled mass spectrometry (LC–MS); assay type: ADME; set-up: dose 2 uM, timepoint 0 vs 12 hours; conditions: 2 µM
[11] = The drug is tested on Eubacterium rectale strain: ATCC33656 for biotransformation. The drug concentrations were measured before and after a 12-h incubation by liquid-chromatography-coupled mass spectrometry (LC–MS); conditions: agathobacter rectalis, 2 µM
[12] = bacteroides stercoris, 12 h, 2 µM
[13] = bacteroides thetaiotaomicron, 12 h, 2 µM
[14] = segatella copri, 12 h, 2 µM
[15] = The drug is tested on Ruminococcus torques strain: ATCC27756 for biotransformation. The drug concentrations were measured before and after a 12-h incubation by liquid-chromatography-coupled mass spectrometry (LC–MS); assay type: ADME; set-up: dose 2 uM, timepoint 0 vs 12 hours; conditions: 2 µM
[16] = The drug is tested on Eubacterium hallii strain: DSM3353 for biotransformation. The drug concentrations were measured before and after a 12-h incubation by liquid-chromatography-coupled mass spectrometry (LC–MS); conditions: anaerobutyricum hallii, 2 µM
[17] = The drug is tested on Bacteroides vulgatus strain: ATCC8482 for biotransformation. The drug concentrations were measured before and after a 12-h incubation by liquid-chromatography-coupled mass spectrometry (LC–MS); conditions: phocaeicola vulgatus, 2 µM
[18] = The drug is tested on Bifidobacterium ruminantium strain: fecal isolate for biotransformation. The drug concentrations were measured before and after a 12-h incubation by liquid-chromatography-coupled mass spectrometry (LC–MS); conditions: 2 µM

Structure (SMILES) | Bacterial Biotransformation [1] | Bacterial Biotransformation [2] | Bacterial Biotransformation [3] | Bacterial Biotransformation [4] | Bacterial Biotransformation [5] | Bacterial Biotransformation [6] | Bacterial Biotransformation [7] | Bacterial Biotransformation [8] | Bacterial Biotransformation [9] | Bacterial Biotransformation [10] | Bacterial Biotransformation [11] | Bacterial Biotransformation [12] | Bacterial Biotransformation [13] | Bacterial Biotransformation [14] | Bacterial Biotransformation [15] | Bacterial Biotransformation [16] | Bacterial Biotransformation [17] | Bacterial Biotransformation [18]
CCCCCNC(=N)N/N=C/c1c[nH]c2ccc(OC)cc12.O=C(O)/C=C\C(=O)O [TEGASEROD MALEATE] | Compound NOT metabolized | Compound NOT metabolized | Compound NOT metabolized | Compound NOT metabolized | Compound NOT metabolized | Compound NOT metabolized | Compound NOT metabolized | Compound NOT metabolized | Compound NOT metabolized | Compound NOT metabolized | Compound NOT metabolized | Compound NOT metabolized | Compound NOT metabolized | Compound NOT metabolized | Compound NOT metabolized | Compound NOT metabolized | Compound NOT metabolized | –
CCN(C(C)=O)c1cccc(-c2ccnc3c(C#N)cnn23)c1 [ZALEPLON] | – | Compound NOT metabolized | Compound NOT metabolized | – | Compound NOT metabolized | Compound NOT metabolized | Compound metabolized | – | Compound NOT metabolized | Compound NOT metabolized | – | Compound NOT metabolized | – | Compound NOT metabolized | Compound NOT metabolized | Compound NOT metabolized | Compound metabolized | Compound NOT metabolized
O=C1CC2(CCCC2)CC(=O)N1CCCCN1CCN(c2ncccn2)CC1 [BUSPIRONE] | Compound NOT metabolized | Compound NOT metabolized | Compound NOT metabolized | Compound NOT metabolized | Compound NOT metabolized | – | Compound NOT metabolized | Compound NOT metabolized | Compound NOT metabolized | Compound NOT metabolized | Compound NOT metabolized | Compound NOT metabolized | Compound NOT metabolized | Compound NOT metabolized | Compound NOT metabolized | Compound NOT metabolized | – | –
COc1cc2nc(N(C)CCCNC(=O)C3CCCO3)nc(N)c2cc1OC (stereo not given) [ALFUZOSIN] | Compound NOT metabolized | Compound NOT metabolized | Compound NOT metabolized | Compound NOT metabolized | Compound NOT metabolized | Compound NOT metabolized | Compound metabolized | Compound NOT metabolized | Compound NOT metabolized | Compound NOT metabolized | Compound NOT metabolized | Compound NOT metabolized | Compound NOT metabolized | Compound NOT metabolized | Compound NOT metabolized | Compound NOT metabolized | – | Compound NOT metabolized
COc1ccc(CCN(C)CCCC(C#N)(c2ccc(OC)c(OC)c2)C(C)C)cc1OC (stereo not given) | Compound NOT metabolized | Compound metabolized | Compound NOT metabolized | – | Compound NOT metabolized | Compound metabolized | – | Compound NOT metabolized | Compound NOT metabolized | Compound NOT metabolized | – | Compound metabolized | Compound metabolized | Compound metabolized | Compound NOT metabolized | Compound metabolized | Compound metabolized | Compound NOT metabolized
CN(CCOc1ccc(CC2SC(=O)NC2=O)cc1)c1ccccn1.O=C(O)/C=C\C(=O)O (stereo not given) [ROSIGLITAZONE MALEATE] | Compound NOT metabolized | Compound NOT metabolized | Compound NOT metabolized | Compound NOT metabolized | Compound NOT metabolized | Compound NOT metabolized | Compound NOT metabolized | Compound NOT metabolized | Compound NOT metabolized | Compound NOT metabolized | – | Compound NOT metabolized | Compound NOT metabolized | Compound NOT metabolized | Compound NOT metabolized | Compound NOT metabolized | Compound NOT metabolized | –
CCOC(=O)C1=C[C@]2(CC)CCCN3CCc4c(n1c1ccccc41)[C@@H]32 [VINPOCETINE] | Compound NOT metabolized | Compound NOT metabolized | Compound NOT metabolized | Compound NOT metabolized | Compound NOT metabolized | Compound NOT metabolized | – | Compound NOT metabolized | Compound NOT metabolized | Compound NOT metabolized | Compound NOT metabolized | Compound NOT metabolized | Compound NOT metabolized | Compound NOT metabolized | – | Compound NOT metabolized | Compound NOT metabolized | Compound NOT metabolized
CCOc1ccc(NC(C)=O)cc1 [PHENACETIN] | Compound NOT metabolized | Compound NOT metabolized | Compound NOT metabolized | Compound NOT metabolized | Compound NOT metabolized | Compound NOT metabolized | Compound NOT metabolized | Compound NOT metabolized | – | Compound NOT metabolized | Compound NOT metabolized | Compound NOT metabolized | Compound NOT metabolized | Compound NOT metabolized | Compound NOT metabolized | Compound NOT metabolized | Compound NOT metabolized | Compound NOT metabolized
COC1=CC(=O)C[C@@H](C)[C@]12Oc1c(Cl)c(OC)cc(OC)c1C2=O [GRISEOFULVIN] | Compound NOT metabolized | – | Compound NOT metabolized | Compound NOT metabolized | Compound metabolized | – | Compound metabolized | Compound NOT metabolized | – | Compound NOT metabolized | Compound NOT metabolized | – | Compound metabolized | Compound metabolized | Compound NOT metabolized | Compound NOT metabolized | Compound metabolized | Compound NOT metabolized
O=C1N=C([O-])NC1(c1ccccc1)c1ccccc1.[Na+] [PHENYTOIN SODIUM] | Compound NOT metabolized | Compound metabolized | Compound NOT metabolized | Compound NOT metabolized | – | Compound metabolized | Compound metabolized | Compound metabolized | Compound NOT metabolized | – | – | Compound NOT metabolized | Compound NOT metabolized | Compound NOT metabolized | Compound NOT metabolized | Compound NOT metabolized | Compound metabolized | Compound metabolized

Reference: ChEMBL document CHEMBL5303573, “Mapping human microbiome drug metabolism by gut bacteria and their genes” (Nature, 2019)
